Here are results for 76 compounds from doi:10.1101/2021.10.07.463234v2 (biorxiv, 2021).

Where a name gives a salt, the structure may show the parent alone.

This assay addresses SARS-CoV-2 Mac1 (Severe acute respiratory syndrome coronavirus 2, UniProt P0DTD1). Briefly: biochemical. The settings on record: for inhibition at 100 µM: read-out: %inhibition; for %inhibition: 100 µM, inhibitor.

Take `O=c1[nH]c2ccccc2n1C1CCN(CCCC(c2ccc(F)cc2)c2ccc(F)cc2)CC1` [Pimozide]: the inhibition at 100 µM turned out to be 0%.

As for `CCc1ccc(CCOc2ccc(CC3SC(=O)NC3=O)cc2)nc1` (stereo not shown) [Pioglitazone], the inhibition at 100 µM came to 0%.

With `CCn1cc(C(=O)O)c(=O)c2cnc(N3CCNCC3)nc21` [Pipemidic acid], the inhibition at 100 µM was 0%. The same measure, in the same setting: the value for `CCN1CCN(C(=O)N[C@@H](C(=O)N[C@@H]2C(=O)N3[C@@H]2SC(C)(C)[C@@H]3C(=O)O)c2ccccc2)C(=O)C1=O` [Piperacillin Sodium] was 24.2%; that for `C1CNCCN1` [Piperazine] was 5.65%; that for `O=C(/C=C/C=C/c1ccc2c(c1)OCO2)N1CCCCC1` [Piperine] was 0%. Take `NC(=O)CN1CCCC1=O` [Piracetam]: the inhibition at 100 µM was determined as 9.88%. Regarding `Cc1ccc(=O)n(-c2ccccc2)c1` [Pirfenidone], the inhibition at 100 µM was determined as 15.4%.

For `CCn1cc(C(=O)O)c(=O)c2cnc(N3CCCC3)nc21` [Piromidic Acid], the inhibition at 100 µM amounted to 10.1%. The same measure, in the same setting: the result for `CN1C(C(=O)Nc2ccccn2)=C(O)c2ccccc2S1(=O)=O` [Piroxicam] reads 38%; that for `O=C(O)C[C@H](O)C[C@H](O)/C=C/c1c(C2CC2)nc2ccccc2c1-c1ccc(F)cc1` [Pitavastatin Calcium], 13.3%; that for `CN1CCC(=C2c3ccccc3CCc3sccc32)CC1` [Pizotifen Malate], 0%. Take `c1cc(CN2CCCNCCNCCCNCC2)ccc1CN1CCCNCCNCCCNCC1` [Plerixafor (AMD3100)]: the inhibition at 100 µM turned out to be 8.18%. In the case of `Nc1cccc2c1C(=O)N(C1CCC(=O)NC1=O)C2=O` (stereo not shown) [Pomalidomide], the inhibition at 100 µM is 0%.

For `Cc1ccc(C(=O)Nc2ccc(CN3CCN(C)CC3)c(C(F)(F)F)c2)cc1C#Cc1cnc2cccnn12` [Ponatinib (AP24534)], the inhibition at 100 µM was 5.09%.

Consider `CCC/N=C1\S/C(=C\c2ccc(OC[C@H](O)CO)c(Cl)c2)C(=O)N1c1ccccc1C` [Ponesimod], for which the inhibition at 100 µM came out at 0%. On the same count and under the same terms, the value for `CC[C@@H]([C@H](C)O)n1ncn(-c2ccc(N3CCN(c4ccc(OC[C@@H]5CO[C@@](Cn6cncn6)(c6ccc(F)cc6F)C5)cc4)CC3)cc2)c1=O` [Posaconazole] was 37.1%; that for `C[C@]12CCC(=O)C=C1C=C[C@@H]1[C@@H]2CC[C@@]2(C)[C@H]1CC[C@@]2(O)CCC(=O)O` [Potassium Canrenoate] was 0%; that for `CC(=O)O` [Potassium acetate] was 11.3%. On the same count and under the same terms, the result for `C=CN1CCCC1=O` [Povidone iodine] reads 0%; that for `C=CC(=O)N1CCC(Oc2cc3c(Nc4ccc(Cl)c(Cl)c4F)ncnc3cc2OC)CC1` [Poziotinib (HM781-36B)], 0%; that for `CCCCc1nc2cc(/C=C/C(=O)NO)ccc2n1CCN(CC)CC` [Pracinostat (SB939)], 3.38%. On the same count and under the same terms, the value for `C#CCC(Cc1cnc2nc(N)nc(N)c2n1)c1ccc(C(=O)N[C@@H](CCC(=O)O)C(=O)O)cc1` (stereo partly shown) [Pralatrexate] was 13.2%; that for `C[n+]1ccccc1C=NO` [Pralidoxime Iodide] was 22.4%. Regarding `C[n+]1ccccc1/C=N/O` [Pralidoxime chloride], the inhibition at 100 µM was 8.15%. `CCCN[C@H]1CCc2nc(N)sc2C1` [Pramipexole 2HCl Monohydrate]: the “%inhibition” value stood at 5.796%. On the same count and under the same terms, the result for `CCCN[C@H]1CCc2nc(N)sc2C1` [Pramipexole dihydrochloride] reads 10.17%; that for `CCCN[C@H]1CCc2nc(N)sc2C1` [Pramipexole], 0%.

Take `CC(C)N(CCNC(=O)CN1CCCC1=O)C(C)C` [Pramiracetam]: the inhibition at 100 µM is 1.25%. Still for that read-out and setting: the value for `CCCCOc1ccc(OCCCN2CCOCC2)cc1` [Pramoxine HCl] was 25.7%. For the compound `O=C(Nc1cccc2c(=O)cc(-c3nnn[nH]3)oc12)c1ccc(OCCCCc2ccccc2)cc1` [Pranlukast], the inhibition at 100 µM was 4.22%. Take `CC(C(=O)O)c1ccc2c(c1)Cc1cccnc1O2` (stereo not shown) [Pranoprofen]: the inhibition at 100 µM worked out at 17.8%. Consider `CC(=O)Oc1cc2c(s1)CCN(C(C(=O)C1CC1)c1ccccc1F)C2` (stereo not shown) [Prasugrel Hydrochloride], for which the “%inhibition” value worked out at 0%. As to `CC(=O)Oc1cc2c(s1)CCN(C(C(=O)C1CC1)c1ccccc1F)C2` (stereo not shown) [Prasugrel], the “%inhibition” value is reported as 25.16%. Regarding `CC[C@H](C)C(=O)O[C@H]1C[C@H](O)C=C2C=C[C@H](C)[C@H](CC[C@@H](O)C[C@@H](O)CC(=O)O)[C@H]21` [Pravastatin sodium], the inhibition at 100 µM stood at 28.2%. Same read-out and setting: the result for `O=C(C1CCCCC1)N1CC(=O)N2CCc3ccccc3C2C1` (stereo not shown) [Praziquantel] reads 0%. With `COc1cc2nc(N3CCN(C(=O)c4ccco4)CC3)nc(N)c2cc1OC` [Prazosin HCl], the inhibition at 100 µM stood at 17.1%. For `CC(=O)OCC(=O)[C@@]1(O)CC[C@H]2[C@@H]3CCC4=CC(=O)C=C[C@]4(C)[C@H]3[C@@H](O)C[C@@]21C` [Prednisolone Acetate], the inhibition at 100 µM came to 15.9%.

As to `C[C@]12C=CC(=O)C=C1CC[C@@H]1[C@@H]2[C@@H](O)C[C@@]2(C)[C@H]1CC[C@]2(O)C(=O)CO` [Prednisolone], the inhibition at 100 µM worked out at 31%. Take `C[C@]12C=CC(=O)C=C1CC[C@@H]1[C@@H]2C(=O)C[C@@]2(C)[C@H]1CC[C@]2(O)C(=O)CO` [Prednisone]: the inhibition at 100 µM came to 0%.

In the case of `CC(=O)[C@H]1CC[C@H]2[C@@H]3CC=C4C[C@@H](O)CC[C@]4(C)[C@H]3CC[C@]12C` [Pregnenolone], the inhibition at 100 µM was 14.7%. Still for that read-out and setting: the value for `CCCNC(C)C(=O)Nc1ccccc1C` (stereo not shown) [Prilocaine hydrochloride] was 0%; that for `COc1cc(NC(C)CCCN)c2ncccc2c1` (stereo not shown) [Primaquine Diphosphate] was 5.42%; that for `CCC1(c2ccccc2)C(=O)NCNC1=O` [Primidone] was 7.21%. On the same count and under the same terms, the result for `CCCC(C(=O)OCCN(CC)CC)(c1ccccc1)c1ccccc1` [Proadifen HCl] reads 15.2%; that for `CC(C)(Sc1cc(C(C)(C)C)c(O)c(C(C)(C)C)c1)Sc1cc(C(C)(C)C)c(O)c(C(C)(C)C)c1` [Probucol], 6.54%; that for `CCN(CC)CCNC(=O)c1ccc(N)cc1` [Procainamide HCl], 17.1%. On to `CCN(CC)CCOC(=O)c1ccc(N)cc1` [Procaine], for which the inhibition at 100 µM was determined as 0%.

Consider `CNNCc1ccc(C(=O)NC(C)C)cc1` [Procarbazine HCl], for which the inhibition at 100 µM worked out at 0%.

Take `O=C(O)CCc1nc2ccccc2[nH]1` [Procodazole]: the inhibition at 100 µM was 7.67%. As to `OC(CCN1CCCC1)(c1ccccc1)C1CCCCC1` (stereo not shown) [Procyclidine HCl], the inhibition at 100 µM was 6.52%. As to `Nc1ccc2cc3ccc(N)cc3nc2c1` [Proflavine Hemisulfate], the inhibition at 100 µM was 0%. On to `CC(=O)[C@H]1CC[C@H]2[C@@H]3CCC4=CC(=O)CC[C@]4(C)[C@H]3CC[C@]12C` [Progesterone], for which the inhibition at 100 µM came to 1.73%. On the same count and under the same terms, the result for `CN(C)CCCN1c2ccccc2Sc2ccccc21` [Promazine hydrochloride] reads 0%. For `CC(CN1c2ccccc2Sc2ccccc21)N(C)C` (stereo not shown) [Promethazine HCl], the inhibition at 100 µM turned out to be 0%.

With `CCCNCC(O)COc1ccccc1C(=O)CCc1ccccc1` (stereo not shown) [Propafenone HCl], the inhibition at 100 µM came to 0%. Turning to `CC(C)[N+](C)(CCOC(=O)C1c2ccccc2Oc2ccccc21)C(C)C` [Propantheline bromide], the inhibition at 100 µM worked out at 0%.

In the case of `CCCOc1ccc(C(=O)OCCN(CC)CC)cc1N` [Proparacaine HCl], the inhibition at 100 µM turned out to be 13%. Still for that read-out and setting: the result for `CCCOC(C(=O)OC1CCN(C)CC1)(c1ccccc1)c1ccccc1` [Propiverine hydrochloride] reads 21.7%; that for `CC(C)c1cccc(C(C)C)c1O` [Propofol], 19.3%; that for `CCCc1cc(=O)[nH]c(=S)[nH]1` [Propylthiouracil], 11.2%. Same read-out and setting: the value for `Cc1c(C(C)C)c(=O)n(-c2ccccc2)n1C` [Propyphenazone (4-Isopropylantipyrine)] was 0%; that for `CCCCC[C@H](O)/C=C/[C@H]1[C@H](O)CC(=O)[C@@H]1C/C=C\CCCC(=O)O` [Prostaglandin E2 (PGE2)] was 8.12%. With `CCCc1cc(C(N)=S)ccn1` [Protionamide], the inhibition at 100 µM amounted to 50.9%. The same measure, in the same setting: the value for `NC(=O)[C@@H]1CCCN1C(=O)[C@H](Cc1c[nH]cn1)NC(=O)[C@@H]1CCC(=O)N1` [Protirelin] was 0%; that for `CC(O)Cn1cnc2c1c(=O)n(C)c(=O)n2C` (stereo not shown) [Proxyphylline] was 1.62%. As for `COCCCN1CCC(NC(=O)c2cc(Cl)c(N)c3c2OCC3)CC1` [Prucalopride Succinate], the “%inhibition” value was 23.93%. Consider `COCCCN1CCC(NC(=O)c2cc(Cl)c(N)c3c2OCC3)CC1` [Prucalopride], for which the “%inhibition” value is recorded as 8.754%.

`COc1ccc(C[C@H](N)C(=O)N[C@H]2[C@@H](O)[C@H](n3cnc4c(N(C)C)ncnc43)O[C@@H]2CO)cc1` [Puromycin 2HCl]: the inhibition at 100 µM was 4.39%. As for `NC(=O)c1cnccn1` [Pyrazinamide], the inhibition at 100 µM stood at 24.2%. For `CN(C)C(=O)Oc1ccc[n+](C)c1` [Pyridostigmine Bromide], the inhibition at 100 µM was determined as 0%.

Take `Cc1ncc(COP(=O)(O)O)c(C=O)c1O` [Pyridoxal phosphate]: the inhibition at 100 µM is 0%.

With `Cc1ncc(CO)c(CO)c1O` [Pyridoxine], the inhibition at 100 µM worked out at 0%.

Take `COc1ccc(CN(CCN(C)C)c2ccccn2)cc1` [Pyrilamine Maleate]: the inhibition at 100 µM was 5.37%.

In the case of `CCc1nc(N)nc(N)c1-c1ccc(Cl)cc1` [Pyrimethamine], the inhibition at 100 µM was determined as 3.53%. The same measure, in the same setting: the value for `CCOC(=O)[C@H](CCc1ccccc1)N[C@@H](C)C(=O)N1Cc2ccccc2C[C@H]1C(=O)O` [Quinapril HCl] was 25%.

Broadly, the inhibition is the drop in the measured response relative to a control, in per cent. The %inhibition is the share of the control response that was lost under treatment. Read a low %inhibition as little suppression.
